Measured values from the NIST ThermoML archive (doi:10.1016/j.jct.2008.07.016).
Numbers after ± are expanded uncertainties.

Test: molar enthalpy of vaporization or sublimation
Conditions: 298.15 K; Crystal; microcalorimetry

Compound: Brc1ccc2[nH]ccc2c1 [1H-indole, 5-bromo-]
- molar enthalpy: 22.1 ± 1.1 kcal/mol

Compound: Brc1ccc2c(c1)CCN2 [5-Bromoindoline]
- molar enthalpy: 21 ± 0.908 kcal/mol
